Measured values as given in ChEMBL document CHEMBL1201862, “PubChem BioAssay data set” (2004).
Several values for one entry are separate records, joined by “and”; a condition that tells them apart may be missing. Equal entries are not always repeated.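 Five concentrations, 48 hours, 96-well plates. At the GI50, growth is halved.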 Activity calls are given as the source filed them. Rule as the data show it: active = GI50 up to about 1.1 µM and inactive = higher.

Legend:
Assay in all cases: DTP human tumour cell line panel, 48 h
NCI-H460 = system: NCI-H460
UACC-257 = system: UACC-257
HCT-15 = system: HCT-15
HCC 2998 = system: HCC 2998
OVCAR-8 = system: OVCAR-8
MDA-N = system: MDA-N
CAKI-1 = system: CAKI-1
SN12C = system: SN12C
MDA-MB-231 = system: MDA-MB-231
Malme-3M = system: Malme-3M
RPMI-8226 = system: RPMI-8226
DU-145 = system: DU-145
ACHN = system: ACHN
OVCAR-3 = system: OVCAR-3
HL-60 = system: HL-60
SF-539 = system: SF-539
OVCAR-5 = system: OVCAR-5
A549 = system: A549
LOX IMVI = system: LOX IMVI
M14 = system: M14
OVCAR-4 = system: OVCAR-4
NCI-H226 = system: NCI-H226
SK-MEL-28 = system: SK-MEL-28
SK-MEL-5 = system: SK-MEL-5
SW-620 = system: SW-620
MOLT-4 = system: MOLT-4
KM12 = system: KM12
Hs-578T = system: Hs-578T
HCT-116 = system: HCT-116
PC-3 = system: PC-3
HT-29 = system: HT-29
T47D = system: T47D
K562 = system: K562
UO-31 = system: UO-31
MCF7 = system: MCF7
SR = system: SR
U-251 = system: U-251
HOP-92 = system: HOP-92
RXF 393 = system: RXF 393
SF-268 = system: SF-268
HOP-62 = system: HOP-62
NCI-H23 = system: NCI-H23
COLO 205 = system: COLO 205
SNB-19 = system: SNB-19
SF-295 = system: SF-295
CCRF-CEM = system: CCRF-CEM
NCI/ADR-RES = system: NCI/ADR-RES
MDA-MB-435 = system: MDA-MB-435
SNB-75 = system: SNB-75
TK-10 = system: TK-10
SK-OV-3 = system: SK-OV-3
IGROV-1 = system: IGROV-1
EKVX = system: EKVX
SK-MEL-2 = system: SK-MEL-2
786-0 = system: 786-0
UACC-62 = system: UACC-62

N#Cc1ccc(-c2ccc(Cl)cc2)n(C2OC(CO)C(O)C(O)C2O)c1=S (configuration not stated)
GI50 (NCI-H460): > 100 µM (inactive) and 86.5 µM (inactive) | GI50 (UACC-257): > 100 µM (inactive) | GI50 (HCT-15): > 100 µM | GI50 (HCC 2998): > 100 µM (inactive) | GI50 (OVCAR-8): > 100 µM (inactive) | GI50 (MDA-N): > 100 µM (inactive) | GI50 (CAKI-1): > 100 µM (inactive) | GI50 (SN12C): > 100 µM (inactive) | GI50 (MDA-MB-231): > 100 µM (inactive) | GI50 (Malme-3M): > 100 µM (inactive) | GI50 (RPMI-8226): > 100 µM (inactive) | GI50 (DU-145): > 100 µM (inactive) | GI50 (ACHN): > 100 µM (inactive) | GI50 (OVCAR-3): > 100 µM (inactive) | GI50 (HL-60): > 100 µM (inactive) | GI50 (SF-539): > 100 µM (inactive) | GI50 (OVCAR-5): > 100 µM (inactive) | GI50 (A549): > 100 µM (inactive) | GI50 (LOX IMVI): > 100 µM (inactive) | GI50 (M14): > 100 µM (inactive) | GI50 (OVCAR-4): > 100 µM (inactive) | GI50 (NCI-H226): > 100 µM (inactive) | GI50 (SK-MEL-28): > 100 µM (inactive) | GI50 (SK-MEL-5): > 100 µM (inactive) and 98.6 µM (inactive) | GI50 (SW-620): > 100 µM (inactive) | GI50 (MOLT-4): > 100 µM (inactive) | GI50 (KM12): > 100 µM (inactive) | GI50 (Hs-578T): > 100 µM (inactive) | GI50 (HCT-116): > 100 µM (inactive) and 86.1 µM (inactive) | GI50 (PC-3): > 100 µM (inactive) | GI50 (HT-29): > 100 µM (inactive) | GI50 (T47D): > 100 µM (inactive) | GI50 (K562): > 100 µM (inactive) | GI50 (UO-31): > 100 µM (inactive) | GI50 (MCF7): 62.4 µM (inactive) | GI50 (SR): > 100 µM (inactive)

N/N=C1/C(=N/O)CCc2nonc21
GI50 (NCI-H460): > 100 µM (inactive) | GI50 (UACC-257): > 100 µM (inactive) | GI50 (U-251): > 100 µM (inactive) | GI50 (HCT-15): > 100 µM | GI50 (HOP-92): > 100 µM (inactive) | GI50 (HCC 2998): > 100 µM (inactive) | GI50 (RXF 393): > 100 µM (inactive) | GI50 (SF-268): > 100 µM (inactive) | GI50 (HOP-62): > 100 µM (inactive) | GI50 (OVCAR-8): > 100 µM (inactive) | GI50 (MDA-N): > 100 µM (inactive) | GI50 (CAKI-1): > 100 µM (inactive) | GI50 (SN12C): > 100 µM (inactive) | GI50 (NCI-H23): > 100 µM (inactive) | GI50 (COLO 205): > 100 µM (inactive) | GI50 (MDA-MB-231): > 100 µM (inactive) | GI50 (Malme-3M): > 100 µM (inactive) | GI50 (RPMI-8226): > 100 µM (inactive) | GI50 (DU-145): > 100 µM (inactive) | GI50 (ACHN): > 100 µM (inactive) | GI50 (OVCAR-3): > 100 µM (inactive) | GI50 (HL-60): > 100 µM (inactive) | GI50 (SNB-19): 84.1 µM (inactive) | GI50 (SF-539): > 100 µM (inactive) | GI50 (OVCAR-5): > 100 µM (inactive) | GI50 (A549): > 100 µM (inactive) | GI50 (LOX IMVI): > 100 µM (inactive) | GI50 (SF-295): > 100 µM (inactive) | GI50 (M14): > 100 µM (inactive) | GI50 (OVCAR-4): > 100 µM (inactive) | GI50 (CCRF-CEM): > 100 µM (inactive) | GI50 (NCI-H226): 24.6 µM (inactive) | GI50 (NCI/ADR-RES): > 100 µM (inactive) | GI50 (MDA-MB-435): > 100 µM (inactive) | GI50 (SNB-75): > 100 µM (inactive) | GI50 (SK-MEL-28): > 100 µM (inactive) | GI50 (SK-MEL-5): > 100 µM (inactive) | GI50 (TK-10): > 100 µM (inactive) | GI50 (SK-OV-3): > 100 µM (inactive) | GI50 (SW-620): > 100 µM (inactive) | GI50 (MOLT-4): > 100 µM (inactive) | GI50 (IGROV-1): > 100 µM (inactive) | GI50 (KM12): > 100 µM (inactive) | GI50 (Hs-578T): > 100 µM (inactive) | GI50 (HCT-116): > 100 µM (inactive) | GI50 (EKVX): 41.6 µM (inactive) | GI50 (PC-3): > 100 µM (inactive) | GI50 (HT-29): > 100 µM (inactive) | GI50 (SK-MEL-2): > 100 µM (inactive) | GI50 (T47D): > 100 µM (inactive) | GI50 (786-0): > 100 µM (inactive) | GI50 (K562): > 100 µM (inactive) | GI50 (UO-31): 28.6 µM (inactive) | GI50 (MCF7): > 100 µM (inactive) | GI50 (UACC-62): > 100 µM (inactive) | GI50 (SR): > 100 µM (inactive)
